Converted amounts (≈) assume the structure as drawn.
Assays:
[1] = system: Escherichia coli K-12 R-5; assay: Minimal inhibitory concentration, agar dilution streak method; type: cell-based; settings: K12R5, nutrient agar, 37° C, 18 hours
Method: (§1) [α]D^22 + 38°, (c 0.85, water).
(§2) *Agar Agar dilution streak method (nutrient agar, 37° C, 18 hours)
(§3) *Agar dilution streak method (nutrient agar, 37° C, 18 hours).

[2] = system: Bacillus subtilis NRRL B-558; assay: as above; type: cell-based; settings: NRRLB558, nutrient agar, 37° C, 18 hours
Method: as §1, §2, §3

Proteus rettgeri GN 466 = assay: as above; type: cell-based; settings: Providencia rettgeri, GN466; nutrient agar, 37° C, 18 hours
Method: as §1, §2, §3

[3] = system: Escherichia coli K-12 C 600 R 135; assay: as above; type: cell-based; settings: 18 h, read-out: Minimal inhibitory concentration
Method: as §1, §2, §3

Proteus rettgeri GN 311 = assay: as above; type: cell-based; settings: Providencia rettgeri, GN311; nutrient agar, 37° C, 18 hours
Method: as §1, §2, §3

[4] = system: Pseudomonas aeruginosa 99; assay: as above; type: cell-based; settings: nutrient agar, 37° C, 18 hours, read-out: Minimal inhibitory concentration
Method: as §1, §2, §3

Escherichia coli NIHJ = assay: as above; type: cell-based; settings: nutrient agar, 37° C, 18 hours
Method: as §1, §2, §3

Sarcina lutea PCI 1001 = assay: as above; type: cell-based; settings: Micrococcus luteus, PCI1001; nutrient agar, 37° C, 18 hours; read-out: Minimal inhibitory concentration
Method: as §1, §2, §3

[5] = system: Escherichia coli J 5 R 11-2; assay: as above; type: cell-based; settings: J5R112, 18 h, read-out: Minimal inhibitory concentration
Method: as §1, §2, §3

[6] = system: Klebsiella pneumoniae PCI 602; assay: as above; type: cell-based; settings: PCI602, nutrient agar, 37° C, 18 hours
Method: as §1, §2, §3

Salmonella typhosa T-63 = assay: as above; type: cell-based; settings: Salmonella enterica, nutrient agar, 37° C, 18 hours
Method: as §1, §2, §3

[7] = system: gram-positive and gram-negative bacteria; assay: Antibacterial activity (in words); type: cell-based; settings: for antibacterial activity compared with parent or reference substance: sensitive (and resistant) bacteria
Method: as §1

[8] = system: Mycobacterium smegmatis ATCC 607; assay: Minimal inhibitory concentration, agar dilution streak method; type: cell-based; settings: Mycolicibacterium smegmatis, ATCC607; nutrient agar, 37° C, 48 hours; read-out: Minimal inhibitory concentration
in vivo = settings: mouse, iv
[9] = system: Escherichia coli K-12 JR 66/W 677; assay: Minimal inhibitory concentration, agar dilution streak method; type: cell-based; settings: for MIC: Escherichia coli, 18 h, read-out: Minimal inhibitory concentration; for effectiveness against Escherichia coli K-12 JR 66/W 677: strain resistant to butirosin B
Method: as §2, §3

[10] = system: Pseudomonas aeruginosa A 3; assay: as above; type: cell-based; settings: A3, nutrient agar, 37° C, 18 hours, read-out: Minimal inhibitory concentration
Method: as §2, §3

[11] = system: Escherichia coli K-12 W 677; assay: as above; type: cell-based; settings: K12W677, nutrient agar, 37° C, 18 hours, read-out: Minimal inhibitory concentration
Method: as §2, §3

[12] = system: Escherichia coli K-12 LA 290 R 64; assay: as above; type: cell-based; settings: nutrient agar, 37° C, 18 hours, read-out: Minimal inhibitory concentration
Method: as §2, §3

[13] = system: Escherichia coli K-12 LA 290 R 56; assay: as above; type: cell-based; settings: 18 h, read-out: Minimal inhibitory concentration
Method: as §2, §3

[14] = system: Escherichia coli K-12 LA 290 R 55; assay: as above; type: cell-based; settings: 18 h, read-out: Minimal inhibitory concentration
Method: as §2, §3

[15] = system: Klebsiella pneumoniae type 22 #3038; assay: as above; type: cell-based; settings: for MIC: Klebsiella pneumoniae, nutrient agar, 37° C, 18 hours; for effectiveness against Klebsiella pneumoniae type 22 #3038: strain resistant to butirosin B
Method: as §2, §3

[16] = system: Escherichia coli K-12 ML 1630; assay: as above; type: cell-based; settings: K12ML1630, nutrient agar, 37° C, 18 hours, read-out: Minimal inhibitory concentration
Method: as §2, §3

[17] = system: Pseudomonas aeruginosa GN 315; assay: as above; type: cell-based; settings: GN315, nutrient agar, 37° C, 18 hours, read-out: Minimal inhibitory concentration
Method: as §2, §3

[18] = system: Pseudomonas aeruginosa No.12; assay: as above; type: cell-based; settings: nutrient agar, 37° C, 18 hours, read-out: Minimal inhibitory concentration
Method: as §2, §3

[19] = system: Pseudomonas aeruginosa TI-13; assay: as above; type: cell-based; settings: TI13, nutrient agar, 37° C, 18 hours, read-out: Minimal inhibitory concentration
Method: as §2, §3

[20] = system: Escherichia coli K-12 ML 1629; assay: as above; type: cell-based; settings: K12ML1629, nutrient agar, 37° C, 18 hours, read-out: Minimal inhibitory concentration
Method: as §2, §3

mice = assay: Acute intravenous toxicity (LD50) in mice; settings: in words
Escherichia coli K-12 = assay: Minimal inhibitory concentration, agar dilution streak method; type: cell-based; settings: K12, nutrient agar, 37° C, 18 hours, read-out: Minimal inhibitory concentration
Method: as §2, §3

[21] = system: Escherichia coli K-12 ML 1410 R 81; assay: as above; type: cell-based; settings: 18 h, read-out: Minimal inhibitory concentration
Method: as §2, §3

[22] = system: Staphylococcus aureus FDA 209P; assay: as above; type: cell-based; settings: FDA209P, nutrient agar, 37° C, 18 hours, read-out: Minimal inhibitory concentration
Method: as §2, §3

[23] = system: Escherichia coli K-12 ML 1410; assay: as above; type: cell-based; settings: K12ML1410, nutrient agar, 37° C, 18 hours, read-out: Minimal inhibitory concentration
Method: as §2, §3

[24] = system: kanamycin-resistant strains; settings: cited from earlier work

Row | SMILES | MIC [1] [µg/mL] | MIC [2] [µg/mL] | MIC (Proteus rettgeri GN 466) [µg/mL] | MIC [3] [µg/mL] | MIC (Proteus rettgeri GN 311) [µg/mL] | MIC [4] [µg/mL] | MIC (Escherichia coli NIHJ) [µg/mL] | MIC (Sarcina lutea PCI 1001) [µg/mL] | MIC [5] [µg/mL] | MIC [6] [µg/mL] | MIC (Salmonella typhosa T-63) [µg/mL] | MIC [8] [µg/mL] | MIC [10] [µg/mL] | MIC [11] [µg/mL] | MIC [12] [µg/mL] | MIC [13] [µg/mL] | MIC [14] [µg/mL] | MIC [15] [µg/mL] | MIC [16] [µg/mL] | MIC [17] [µg/mL] | further results
1 | NCC[C@H](O)C(=O)N[C@@H]1C[C@H](N)[C@@H](O[C@H]2O[C@H](CN)CC[C@H]2N)[C@H](O)[C@H]1O [AHB-dideoxyneamine, 1-N-[(S)-4-amino-2-hydroxybutyryl]-3',4'-dideoxyneamine] | 50 (≈ 128 µM) | < 0.39 | 12.5 (≈ 31.9 µM) | 12.5 (≈ 31.9 µM) | 25 (≈ 63.9 µM) | 25 (≈ 63.9 µM) | 3.12 (≈ 7.97 µM) | 25 (≈ 63.9 µM) | 6.25 (≈ 16 µM) | 6.25 (≈ 16 µM) | 1.56 (≈ 3.98 µM) | 6.25 (≈ 16 µM) | 6.25 (≈ 16 µM) | 3.12 (≈ 7.97 µM) | 3.12 (≈ 7.97 µM) | 3.12 (≈ 7.97 µM) | 3.12 (≈ 7.97 µM) | 12.5 (≈ 31.9 µM) | 3.12 (≈ 7.97 µM) | > 100 | antibacterial activity compared with parent or reference substance [7]: higher antibacterial activity than that of the parent substance, 3',4'-dideoxyneamine, against both sensitive and resistant bacteria; antibacterial activity ([7]; various gram-positive and gram-negative bacteria, including resistant strains): exhibits a antibacterial activity against various gram-positive and gram-negative bacteria, including the kanamycin-resistant strains; LD50 (in vivo): > 100 mg/kg; MIC [9]: 12.5 µg/mL (≈ 31.9 µM); MIC [18]: 6.25 µg/mL (≈ 16 µM); MIC [19]: 6.25 µg/mL (≈ 16 µM); MIC [20]: 3.12 µg/mL (≈ 7.97 µM); toxicity (mice): lower toxicity to animals and men
2 | NCC[C@H](O)C(=O)N[C@@H]1C[C@H](N)[C@@H](O[C@H]2O[C@H](CN)CC[C@H]2N)[C@H](O[C@@H]2O[C@H](CO)[C@@H](O)[C@H]2O)[C@H]1O [AHB-dideoxyribostamycin, 1-N-[(S)-4-amino-2-hydroxybutyryl]-3',4'-dideoxyribostamycin] | 6.25 (≈ 11.9 µM) | < 0.39 | 3.12 (≈ 5.96 µM) | 0.78 (≈ 1.49 µM) | 12.5 (≈ 23.9 µM) | 25 (≈ 47.7 µM) | 1.56 (≈ 2.98 µM) | 25 (≈ 47.7 µM) | < 0.39 | 0.78 (≈ 1.49 µM) | 0.39 (≈ 0.745 µM) | < 0.39 | 6.25 (≈ 11.9 µM) | 0.78 (≈ 1.49 µM) | 1.56 (≈ 2.98 µM) | < 0.39 | 1.56 (≈ 2.98 µM) | 3.12 (≈ 5.96 µM) | 0.78 (≈ 1.49 µM) | > 100 | antibacterial activity compared with parent or reference substance [7]: strongly enhanced antibacterial activity as compared with that of ribostamycin and 3',4'-dideoxyribostamycin and was comparable to that of butirosin B; LD50 (in vivo): > 100 mg/kg; effectiveness against Escherichia coli K-12 JR 66/W 677 [9]: effective; MIC (Escherichia coli K-12): 1.56 µg/mL (≈ 2.98 µM); MIC [21]: 1.56 µg/mL (≈ 2.98 µM); MIC [22]: 1.56 µg/mL (≈ 2.98 µM); effectiveness against Klebsiella pneumoniae type 22 #3038 [15]: effective; MIC [23]: 0.78 µg/mL (≈ 1.49 µM); MIC [18]: 6.25 µg/mL (≈ 11.9 µM); MIC [19]: 12.5 µg/mL (≈ 23.9 µM); MIC [20]: 1.56 µg/mL (≈ 2.98 µM)
3 | NCC[C@H](O)C(=O)N[C@@H]1C[C@H](N)[C@@H](O[C@H]2O[C@H](CN)[C@@H](O)[C@H](O)[C@H]2N)[C@H](O[C@@H]2O[C@H](CO)[C@@H](O)[C@H]2O)[C@H]1O [Butirosin B, 1-N-[(S)-α-hydroxy-γ-amino-n-butyryl]-ribostamycin] | 6.25 (≈ 11.2 µM) | 0.39 (≈ 0.702 µM) | 3.12 (≈ 5.62 µM) | 0.78 (≈ 1.4 µM) | 6.25 (≈ 11.2 µM) | 50 (≈ 90 µM) | 3.12 (≈ 5.62 µM) | 50 (≈ 90 µM) | 1.56 (≈ 2.81 µM) | 0.78 (≈ 1.4 µM) | 0.39 (≈ 0.702 µM) | 0.78 (≈ 1.4 µM) | 3.12 (≈ 5.62 µM) | 0.39 (≈ 0.702 µM) | 0.78 (≈ 1.4 µM) | 0.78 (≈ 1.4 µM) | 0.78 (≈ 1.4 µM) | > 100 | 1.56 (≈ 2.81 µM) | > 100 | activity against kanamycin- and ribostamycin-resistant bacteria [24]: active against some kanamycin- and ribostamycin-resistant bacteria; MIC [9]: > 100 µg/mL; effectiveness against Escherichia coli K-12 JR 66/W 677 [9]: resistant to butirosin B; MIC (Escherichia coli K-12): 0.78 µg/mL (≈ 1.4 µM); MIC [21]: 3.12 µg/mL (≈ 5.62 µM); MIC [22]: 1.56 µg/mL (≈ 2.81 µM); effectiveness against Klebsiella pneumoniae type 22 #3038 [15]: resistant to butirosin B; MIC [23]: 0.78 µg/mL (≈ 1.4 µM); MIC [18]: 6.25 µg/mL (≈ 11.2 µM); MIC [19]: 25 µg/mL (≈ 45 µM); MIC [20]: 1.56 µg/mL (≈ 2.81 µM)
4 | NC[C@H]1O[C@H](O[C@H]2[C@H](O[C@@H]3O[C@H](CO)[C@@H](O)[C@H]3O)[C@@H](O)[C@H](N)C[C@@H]2N)[C@H](N)[C@@H](O)[C@@H]1O [Ribostamycin, 5-0-β-D-ribofuranosyl-neamine] | 50 (≈ 110 µM) | 3.12 (≈ 6.87 µM) | 6.25 (≈ 13.8 µM) | 1.56 (≈ 3.43 µM) | 12.5 (≈ 27.5 µM) | > 100 | 6.25 (≈ 13.8 µM) | 100 (≈ 220 µM) | > 100 | 1.56 (≈ 3.43 µM) | 1.56 (≈ 3.43 µM) | 6.25 (≈ 13.8 µM) | > 100 | 1.56 (≈ 3.43 µM) | 1.56 (≈ 3.43 µM) | 3.12 (≈ 6.87 µM) | 3.12 (≈ 6.87 µM) | > 100 | > 100 | > 100 | MIC [9]: > 100 µg/mL; MIC (Escherichia coli K-12): 3.12 µg/mL (≈ 6.87 µM); MIC [21]: > 100 µg/mL; MIC [22]: 3.12 µg/mL (≈ 6.87 µM); MIC [23]: 3.12 µg/mL (≈ 6.87 µM); MIC [18]: > 100 µg/mL; MIC [19]: > 100 µg/mL; MIC [20]: > 100 µg/mL

Reference: US4107424A, “1-N-[(S)-α-hydroxy-ω-aminoacyl] derivatives of 3',4'-dideoxykanamycin B and 3'-deoxykanamycin B antibiotics” (Zaidan Hojin Biseibutsu Kagaku Kenkyu Kai, priority 1972, dated 1978)
